# Like-named read-outs stand apart in the source and are kept apart here.
# Columns and labels:
# HRV 2 = format: cell-based, human rhinovirus; conditions: HRV 2, HeLa cells, 72 hours after infection
# HRV 14 [1] = assay: plaque reduction assay, HeLa cells infected with HRV 14; format: cell-based, human rhinovirus; conditions: for Plaque reduction rel. inhibition: HRV 14, HeLa cells, M.O.I. 0.0004; for Rel. total inhibition: HRV 14, plaque reduction and residual infectiousness combined
# MDCK cells = conditions: dog
# HRV 14 [2] = assay: residual infectiousness (TCID50/ml) by virus titration, HeLa cells infected with HRV 14; format: cell-based, human rhinovirus; conditions: HRV 14, HeLa cells
# HRV 14 [3] = assay: high-throughput cytopathic effect inhibitory assay (CPE), HeLa cells infected with HRV 14; format: cell-based, human rhinovirus; conditions: HRV 14, HeLa cells, second series of experiments
# influenza A virus = format: cell-based; conditions: MDCK cells
# [4] = dilution 1:2 of 0.003125% (W/V)
# [5] = dilution 1:4 of 0.003125% (W/V)
# [6] = dilution 1:8 of 0.003125% (W/V)
# [7] = dilution 1:16 of 0.003125% (W/V)
# [8] = dilution 1:32 of 0.003125% (W/V)
smiles,measurement,setting,value
Cc1cc(C(C)(C)C)c(O)c(C)c1CC1=NCCN1 [oxymetazoline],CPE inhibition,HRV 2; [4],40.5%
same,CPE inhibition,HRV 2; [5],23.2%
same,Plaque reduction rel. inhibition,HRV 14 [1]; [4],44.26%
same,Plaque reduction rel. inhibition,HRV 14 [1]; [5],32.98%
same,Plaque reduction rel. inhibition,HRV 14 [1]; [6],25.74%
same,Plaque reduction rel. inhibition,HRV 14 [1]; [7],17.66%
same,Plaque reduction rel. inhibition,HRV 14 [1]; [8],14.26%
same,Rel. total inhibition,HRV 14 [1]; [4],38.79
same,Rel. total inhibition,HRV 14 [1]; [5],26.91
same,Rel. total inhibition,HRV 14 [1]; [6],22.25
same,Rel. total inhibition,HRV 14 [1]; [7],18.20
same,Rel. total inhibition,HRV 14 [1]; [8],13.38
same,active-ingredient concentration at which no effects which reduce the metabolism of the cells arise (non-cytotoxic concentration),MDCK cells,0.005 % (W/V)
same,Residual infectiousness rel. inhibition,HRV 14 [2]; [4],33.33%
same,Residual infectiousness rel. inhibition,HRV 14 [2]; [5],20.83%
same,Residual infectiousness rel. inhibition,HRV 14 [2]; [6],18.75%
same,Residual infectiousness rel. inhibition,HRV 14 [2]; [7],18.75%
same,Residual infectiousness rel. inhibition,HRV 14 [2]; [8],12.50%
same,CPE inhibition,HRV 14 [3]; [4],50.5%
same,CPE inhibition,HRV 14 [3]; [5],53.6%
same,CPE inhibition,HRV 14 [3]; [6],37.5%
same,CPE inhibition,HRV 14 [3]; [7],5.9%
same,CPE inhibition,influenza A virus; dilution 1:2 of 0.005% (W/V),52.8%
same,CPE inhibition,influenza A virus; dilution 1:4 of 0.005% (W/V),35.5%
same,CPE inhibition,influenza A virus; dilution 1:8 of 0.005% (W/V),23.1%
same,CPE inhibition,influenza A virus; dilution 1:16 of 0.005% (W/V),9.1%

# Reference: patent US20080108685A1, “Novel Use for Alpha Sympathomimetics Having a 2-Imidazoline Structure” (priority 2004, published 2008)
